Laboratory results taken from ChEMBL document CHEMBL1201862, “PubChem BioAssay data set” (2004).
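Test compounds were applied to cells in 96-well plates for 48 hours at 5 doses. Here, GI50 denotes the concentration required for 50% inhibition of growth.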 Activity calls are given as the source filed them. No stated cut-off is given here; in the data, active = GI50 up to about 1.1 µM and inactive = higher.

Key:
Test in all cases: NCI tumour cell line growth inhibition, 48 h
IGROV-1 = system: IGROV-1
OVCAR-4 = system: OVCAR-4
OVCAR-5 = system: OVCAR-5
UACC-62 = system: UACC-62
786-0 = system: 786-0
K562 = system: K562
SF-539 = system: SF-539
Malme-3M = system: Malme-3M
HT-29 = system: HT-29
SN12C = system: SN12C
MOLT-4 = system: MOLT-4
SNB-19 = system: SNB-19
COLO 205 = system: COLO 205
HCC 2998 = system: HCC 2998
T47D = system: T47D
HL-60 = system: HL-60
M14 = system: M14
A549 = system: A549
EKVX = system: EKVX
SNB-75 = system: SNB-75

Measured: GI50

Nc1nc(-c2cc(-c3cccc4ccccc34)nc(N)n2)cc(-c2cccc3ccccc23)n1
inactive: IGROV-1 > 100 µM | OVCAR-4 > 100 µM | OVCAR-5 > 100 µM | UACC-62 > 100 µM | 786-0 > 100 µM | K562 > 100 µM | SF-539 > 100 µM | Malme-3M > 100 µM | HT-29 > 100 µM | SN12C > 100 µM | MOLT-4 > 100 µM | SNB-19 > 100 µM | COLO 205 > 100 µM | HCC 2998 > 100 µM | T47D > 100 µM | HL-60 > 100 µM | M14 > 100 µM | A549 > 100 µM | EKVX > 100 µM

CCOC(=O)c1c(NCc2ccccc2)n(-c2ccccc2)c(=S)n(-c2ccccc2)c1=O
inactive: IGROV-1 > 100 µM | OVCAR-4 98.6 µM | OVCAR-5 > 100 µM | UACC-62 94.8 µM | 786-0 > 100 µM | K562 41.1 µM | Malme-3M > 100 µM | HT-29 40.4 µM | SN12C > 100 µM | MOLT-4 34.5 µM | SNB-19 > 100 µM | COLO 205 76.2 µM | HCC 2998 > 100 µM | T47D 66.4 µM | HL-60 35.6 µM | SNB-75 33.7 µM | M14 > 100 µM | A549 91.6 µM

COC(=O)c1cc(NC(=O)Cn2c3ccccc3c3ccccc32)cn1C
inactive: IGROV-1 24.3 µM | OVCAR-4 17.3 µM | OVCAR-5 > 100 µM | UACC-62 17.1 µM | 786-0 29.7 µM | K562 59.2 µM | SF-539 23.9 µM | Malme-3M 30.2 µM | HT-29 49.9 µM | SN12C 55.3 µM | MOLT-4 61 µM | SNB-19 39.4 µM | COLO 205 45 µM | HCC 2998 78.9 µM | T47D > 100 µM | HL-60 > 100 µM | M14 > 100 µM | A549 26.7 µM | EKVX 34 µM

COc1cc([C@@H]2c3cc4c(cc3[C@@H](c3c(O)cc(O)c5c3O[C@H](c3ccc(O)c(O)c3)[C@@H](O)C5)[C@H]3COC(=O)[C@H]23)OCO4)cc(OC)c1OC
inactive: IGROV-1 44.6 µM | OVCAR-4 1.8 µM | OVCAR-5 27.2 µM | UACC-62 1.72 µM | 786-0 24 µM | K562 9.31 µM | SF-539 17.6 µM | Malme-3M > 100 µM | HT-29 25.5 µM | SN12C 32.2 µM | MOLT-4 30.5 µM | SNB-19 38.4 µM | COLO 205 22.7 µM | HCC 2998 1.8 µM | T47D 2.24 µM | HL-60 38.8 µM | M14 25.1 µM | A549 29.9 µM | EKVX 50.1 µM

O=C(O)CCCc1ccc2c(c1)CC1(C2)Cc2ccc(CCCC(=O)O)cc2C1
inactive: IGROV-1 > 100 µM | OVCAR-4 > 100 µM | OVCAR-5 > 100 µM | UACC-62 > 100 µM | 786-0 > 100 µM | K562 > 100 µM | SF-539 > 100 µM | Malme-3M > 100 µM | HT-29 > 100 µM | SN12C > 100 µM | MOLT-4 > 100 µM | COLO 205 > 100 µM | HCC 2998 > 100 µM | T47D > 100 µM | HL-60 > 100 µM | M14 > 100 µM | A549 > 100 µM | EKVX > 100 µM

CC1(C)CC[C@]2(C(=O)O)CC[C@]3(C)C(=CC[C@@H]4[C@@]5(C)CC[C@H](OC6OC(C(=O)O)C(O)C(O)C6O)C(C)(C)[C@@H]5CC[C@]43C)[C@@H]2C1 (stereo partly drawn)
inactive: IGROV-1 20 µM | OVCAR-4 16.8 µM | OVCAR-5 16.2 µM | UACC-62 18.4 µM | 786-0 17.5 µM | K562 17 µM | Malme-3M 18.1 µM | HT-29 15.1 µM | SN12C 16.8 µM | MOLT-4 19.8 µM | SNB-19 22 µM | COLO 205 16.9 µM | HCC 2998 18.8 µM | T47D 18.4 µM | HL-60 18.2 µM | SNB-75 18.1 µM | M14 16.9 µM | A549 18.8 µM | EKVX 24.5 µM

COc1ccc2[nH]c3c(c2c1)CC(=O)N1CCC[C@H](C1)CC31OCCCO1
inactive: IGROV-1 92.7 µM | OVCAR-4 > 100 µM | OVCAR-5 > 100 µM | UACC-62 77.1 µM | 786-0 > 100 µM | Malme-3M > 100 µM | HT-29 > 100 µM | SN12C > 100 µM | SNB-19 > 100 µM | COLO 205 > 100 µM | HCC 2998 > 100 µM | T47D > 100 µM | SNB-75 86.9 µM | M14 > 100 µM | A549 > 100 µM | EKVX > 100 µM
